Laboratory results published in ChEMBL document CHEMBL3885881, “DrugMatrix”.

Species on record: Rattus norvegicus
Test: DrugMatrix - Regimen: Daily Repeat
Assay type: toxicity, organism-based, Sprague-Dawley
Design: regimen Daily Repeat, gender Male, age 6-8 weeks
Conditions: in vivo, po, route oral GAVAGE, vehicle 100 % WATER; for ABSOLUTE BASOPHIL / ABSOLUTE EOSINOPHIL / ABSOLUTE LYMPHOCYTE / ABSOLUTE MONOCYTE / ABSOLUTE SEGMENTED NEUTROPHIL / BASOPHIL / EOSINOPHIL / ERYTHROCYTE COUNT / HEMATOCRIT / HEMOGLOBIN / LEUKOCYTE COUNT / LYMPHOCYTE / MEAN CORPUSCULAR HEMOGLOBIN / MEAN CORPUSCULAR HEMOGLOBIN CONCENTRATION / MEAN CORPUSCULAR VOLUME / MONOCYTE / NEUTROPHIL / NUCLEATED RED BLOOD CELLS / PLATELET COUNT: tissue Blood; for ALANINE AMINOTRANSFERASE / ALBUMIN / ALKALINE PHOSPHATASE / ASPARTATE AMINOTRANSFERASE / BLOOD UREA NITROGEN / CARBON DIOXIDE / CHLORIDE / CHOLESTEROL / CREATINE PHOSPHOKINASE / CREATININE / GLUCOSE / LACTATE DEHYDROGENASE / LIPASE / PHOSPHORUS / POTASSIUM / SODIUM / TOTAL BILIRUBIN / TOTAL PROTEIN / URIC ACID: tissue Plasma
[1] = 10 mg/kg, 120 h, dose level Low, time 5 day
[2] = 900 mg/kg, 72 h, dose level High, time 3 day
[3] = 900 mg/kg, 120 h, dose level High, time 5 day

SMILES: CC(C)(C)NC[C@H](O)COc1nsnc1N1CCOCC1 [TIMOLOL]
- ABSOLUTE BASOPHIL [1]: 0 CELLS/uL
- ABSOLUTE EOSINOPHIL [1]: 115.33 CELLS/uL
- ABSOLUTE LYMPHOCYTE [1]: 10711.67 CELLS/uL
- ABSOLUTE MONOCYTE [1]: 97.67 CELLS/uL
- ABSOLUTE SEGMENTED NEUTROPHIL [1]: 1075.33 CELLS/uL
- BASOPHIL [1]: 0%
- EOSINOPHIL [1]: 0.67%
- ERYTHROCYTE COUNT [1]: 5.23 x10E6/uL
- HEMATOCRIT [1]: 33.1%
- HEMOGLOBIN [1]: 12.83 G/DL
- LEUKOCYTE COUNT [1]: 12 x10E3/uL
- LYMPHOCYTE [1]: 90%
- MEAN CORPUSCULAR HEMOGLOBIN [1]: 24.53 pg
- MEAN CORPUSCULAR HEMOGLOBIN CONCENTRATION [1]: 38.77 G/DL
- MEAN CORPUSCULAR VOLUME [1]: 63.27 fL
- MONOCYTE [1]: 0.67%
- NEUTROPHIL [1]: 8.67%
- NUCLEATED RED BLOOD CELLS [1]: 0 /100WBC
- PLATELET COUNT [1]: 1050 x10E3/uL
- ALANINE AMINOTRANSFERASE [1]: 51 u/L
- ALBUMIN [1]: 4.03 G/DL
- ALKALINE PHOSPHATASE [1]: 411.33 u/L
- ASPARTATE AMINOTRANSFERASE [1]: 79.33 u/L
- BLOOD UREA NITROGEN [1]: 15 mg/dL
- CARBON DIOXIDE [1]: 29 mmol/L
- CHLORIDE [1]: 101.33 MEQ/L
- CHOLESTEROL [1]: 71 mg/dL
- CREATINE PHOSPHOKINASE [1]: 333 u/L
- CREATININE [1]: 0.16 mg/dL
- GLUCOSE [1]: 180.33 mg/dL
- LACTATE DEHYDROGENASE [1]: 129.33 u/L
- LIPASE [1]: 9 u/L
- PHOSPHORUS [1]: 11.93 mg/dL
- POTASSIUM [1]: 5.38 MEQ/L
- SODIUM [1]: 144.33 MEQ/L
- TOTAL BILIRUBIN [1]: 0.13 mg/dL
- TOTAL PROTEIN [1]: 6.1 G/DL
- URIC ACID [1]: 0.73 mg/dL
- ABSOLUTE BASOPHIL [2]: 0 CELLS/uL
- ABSOLUTE EOSINOPHIL [2]: 0 CELLS/uL
- ABSOLUTE LYMPHOCYTE [2]: 11176.67 CELLS/uL
- ABSOLUTE MONOCYTE [2]: 84.33 CELLS/uL
- ABSOLUTE SEGMENTED NEUTROPHIL [2]: 872.33 CELLS/uL
- BASOPHIL [2]: 0%
- EOSINOPHIL [2]: 0%
- ERYTHROCYTE COUNT [2]: 5.11 x10E6/uL
- HEMATOCRIT [2]: 32.53%
- HEMOGLOBIN [2]: 12.93 G/DL
- LEUKOCYTE COUNT [2]: 12.13 x10E3/uL
- LYMPHOCYTE [2]: 92%
- MEAN CORPUSCULAR HEMOGLOBIN [2]: 25.27 pg
- MEAN CORPUSCULAR HEMOGLOBIN CONCENTRATION [2]: 39.77 G/DL
- MEAN CORPUSCULAR VOLUME [2]: 63.67 fL
- MONOCYTE [2]: 0.67%
- NEUTROPHIL [2]: 7.33%
- NUCLEATED RED BLOOD CELLS [2]: 0.33 /100WBC
- PLATELET COUNT [2]: 1179.33 x10E3/uL
- ALANINE AMINOTRANSFERASE [2]: 48 u/L
- ALBUMIN [2]: 3.73 G/DL
- ALKALINE PHOSPHATASE [2]: 389 u/L
- ASPARTATE AMINOTRANSFERASE [2]: 98 u/L
- BLOOD UREA NITROGEN [2]: 12.67 mg/dL
- CARBON DIOXIDE [2]: 29.33 mmol/L
- CHLORIDE [2]: 101.67 MEQ/L
- CHOLESTEROL [2]: 77.33 mg/dL
- CREATINE PHOSPHOKINASE [2]: 901.67 u/L
- CREATININE [2]: 0.28 mg/dL
- GLUCOSE [2]: 148.67 mg/dL
- LACTATE DEHYDROGENASE [2]: 189.33 u/L
- LIPASE [2]: 11.33 u/L
- PHOSPHORUS [2]: 13.97 mg/dL
- POTASSIUM [2]: 7.3 MEQ/L
- SODIUM [2]: 143.43 MEQ/L
- TOTAL BILIRUBIN [2]: 0.17 mg/dL
- TOTAL PROTEIN [2]: 5.43 G/DL
- URIC ACID [2]: 1.67 mg/dL
- ABSOLUTE BASOPHIL [3]: 0 CELLS/uL
- ABSOLUTE EOSINOPHIL [3]: 114.33 CELLS/uL
- ABSOLUTE LYMPHOCYTE [3]: 9946 CELLS/uL
- ABSOLUTE MONOCYTE [3]: 153 CELLS/uL
- ABSOLUTE SEGMENTED NEUTROPHIL [3]: 1220 CELLS/uL
- BASOPHIL [3]: 0%
- EOSINOPHIL [3]: 1%
- ERYTHROCYTE COUNT [3]: 5.75 x10E6/uL
- HEMATOCRIT [3]: 36.17%
- HEMOGLOBIN [3]: 13.83 G/DL
- LEUKOCYTE COUNT [3]: 11.43 x10E3/uL
- LYMPHOCYTE [3]: 87%
- MEAN CORPUSCULAR HEMOGLOBIN [3]: 24.07 pg
- MEAN CORPUSCULAR HEMOGLOBIN CONCENTRATION [3]: 38.27 G/DL
- MEAN CORPUSCULAR VOLUME [3]: 62.97 fL
- MONOCYTE [3]: 1.33%
- NEUTROPHIL [3]: 10.67%
- NUCLEATED RED BLOOD CELLS [3]: 0 /100WBC
- PLATELET COUNT [3]: 1330.33 x10E3/uL
- ALANINE AMINOTRANSFERASE [3]: 48 u/L
- ALBUMIN [3]: 3.63 G/DL
- ALKALINE PHOSPHATASE [3]: 402.67 u/L
- ASPARTATE AMINOTRANSFERASE [3]: 107.33 u/L
- BLOOD UREA NITROGEN [3]: 14.33 mg/dL
- CARBON DIOXIDE [3]: 23.67 mmol/L
- CHLORIDE [3]: 103.67 MEQ/L
- CHOLESTEROL [3]: 78.67 mg/dL
- CREATINE PHOSPHOKINASE [3]: 707.33 u/L
- CREATININE [3]: 0.14 mg/dL
- GLUCOSE [3]: 142 mg/dL
- LACTATE DEHYDROGENASE [3]: 252.33 u/L
- LIPASE [3]: 10 u/L
- PHOSPHORUS [3]: 11.6 mg/dL
- POTASSIUM [3]: 6.41 MEQ/L
- SODIUM [3]: 144.37 MEQ/L
- TOTAL BILIRUBIN [3]: 0.17 mg/dL
- TOTAL PROTEIN [3]: 5.27 G/DL
- URIC ACID [3]: 1.5 mg/dL
